# Measurements taken from patent US11097034B2, “Compositions and methods of modulating endochondral ossification and bone formation” (CASE WESTERN RESERVE UNIVERISTY, priority 2016, dated 2021).
# How the values were obtained:
# [1] = tested on: unstable tibia fractures; test: Carbachol injection into tibia fracture callus, μCT; format: in vivo, mouse; conditions: injected into callus during cartilaginous phase; vs DMEM controls; trend
# Description: All procedures were performed on adult male wild type (C57BL/6) mice. We created unstable tibia fractures through three point bending and surgically resected nerves proximal to the fracture (either the sciatic nerve, femoral nerve, or both) and compared them to mice who received sham procedures. We injected Carbachol (Cch), a synthetic acetylcholine analogue, into the callus during the cartilaginous phase of healing and compared them to controls that were injected with Dulbecco's Modified Eagle's medium (DMEM) alone. Bone mineral density (BMD) and bone volume were quantified using micro-computed tomography (μCT) analysis. Following μCT the tibiae were processed for histology and stained using the Hall Brunt Quadruple stain (HBQ). The tissue composition was quantified using stereology on an Olympus Cast system.
# [2] = tested on: bone fracture; test: Temporal delivery of NGF to bone fracture site; format: in vivo, mice; conditions: NGF delivery 7-9 days post-fracture compared with 4-6 days
# Description: FIGS. 24(A-B) illustrate plots showing the temporal therapeutic delivery of NGF to improve bone fracture healing in mice. (A) Timeline of experimental delivery of NGF to bone fracture site for two different post-fracture time ranges. (B) NGF expression decreases over time post-fracture.
Compound,"bone mineral density (BMD), μCT [1]",activation of selected bone healing markers [2]
"C[N+](C)(C)CCOC(N)=O [Cch, Carbachol]",higher BMD than controls,–
NGF: nerve growth factor,–,more robust activation of selected bone healing markers
